Experimental findings from patent publication US10172823B1, “Method for inhibiting cancer cell growth with a transplatin complex” (KING FAHD UNIVERSITY OF PETROLEUM AND MINERALS, priority 2017, dated 2019) are described below.

“Also recorded” adds a separate entry of the source.

Series [1] concerns HCT15 (human colon cancer) cell line. Description: In vitro cytotoxic activity, MTT assay, HCT15 cell line. Format: cell-based. The conditions noted are these: for IC50: MTT assay, HCT15 cells, 24 h incubation with compound, three independent experiments, ± standard deviation, read-out: IC50 Values against HCT15; for activity compared with cisplatin and carboplatin, HCT15: HCT15 cell line, comparison of IC50 values in words. How it is done:
(§1) The trans-[Pt(NH3)2(thione)2].2NO3 complexes were evaluated for in vitro cytotoxic activity against A549 (human lung cancer), MCF-7 (human breast cancer) and HTC15 (human colon cancer) cell lines. The cells were seeded at 4×10^3 cells/well in 100 μL DMEM containing 10% FBS in 96-wells tissue culture plate and incubated for 72 h at 37° C., 5% CO2 in air and 90% relative humidity in CO2 incubator. After incubation, 100 μL of each sample solution (50, 25, 12.5 and 6.25 μM), prepared in DMEM, were added to cells and the cultures were incubated for 24 h. The medium of wells was discarded and 100 μL DMEM containing MTT (3-(4,5-Dimethylthiazol-2-yl)-2,5-diphenyltetrazolium Bromide) (5 mg/mL) was added to the wells and incubated in CO2 incubator at 37° C. in dark for 4 h. After incubation, purple colored formazan (artificial chromogenic dye, product of the reduction of water insoluble tetrazolium salts e.g., MMT by dehydrogenases and reductases) in the cells is produced and appeared as dark crystals in the bottom of the wells. The resultant crystals were solublized by adding 100 μL of DMSO in each well. The solution was thoroughly mixed to dissolve the formazan crystals, producing a purple solution. The absorbance of the 96-wells plate was taken at 570 nm with Labsystems Multiskan EX-Enzyme-linked immunosorbent assay (EX-ELISA) reader against a reagent blank. The IC50 values were calculated from three independent experiments by generating an equation of logarithmic trend line of percentage cell viability against concentration of compounds in Microsoft excel.
(§2) The MTT assay was performed in three independent experiments, each in triplicate. The cancer cell lines used are A549 (human lung cancer), MCF-7 (human breast cancer) and HTC15 (human colon cancer) cell lines. Errors are standard deviations determined from at least three independent experiments.

For series [2], the system named is MCF-7 (human breast cancer) cell line. Description: In vitro cytotoxic activity, MTT assay, MCF-7 cell line. The conditions noted are these: for IC50: read-out: IC50 Values against MCF7, MTT assay, MCF7 cells, 24 h incubation with compound, three independent experiments, ± standard deviation; for cytotoxicity compared with cisplatin and carboplatin, MCF7: MCF7 cell line, comparison of IC50 values in words. How it is done:
as §1, with “After incubation, 100 μL of each sample solution (50, 25, 12.5 and 6.25 μM), prepared in DMEM, were added to cells and the cultures were incubated for 24 h.” left out
as §2

For series [3], the system named is A549 (human lung cancer) cell line. Description: In vitro cytotoxic activity, MTT assay, A549 cell line. Conditions: for IC50: read-out: IC50 Values against A549, MTT assay, A549 cells, 24 h incubation with compound, three independent experiments, ± standard deviation; for in vitro cytotoxicity compared with cisplatin and carboplatin, A549: A549 cell line, comparison of IC50 values in words. On the procedure:
as §1, §2

For `N.N.O=C([O-])C1(C(=O)[O-])CCC1.[Pt+2]` [Carboplatin, carboplatin, reference compound], the IC50 in series [1] amounted to 53 ± 2 µM; in series [2] it was 63 ± 2 µM; in series [3] it was 70 ± 2 µM.

In the case of `CC(C)N1CCNC1=S.CC(C)N1CCNC1=S.N.N.O=[N+]([O-])[O-].O=[N+]([O-])[O-].[Pt+2]` [Complex 6, trans-[Pt(NH3)2(iPrImt)2]. 2NO3], the “activity compared with cisplatin and carboplatin, HCT15” value in series [1] was “less potent even than carboplatin”. For the same compound, the values for the IC50 in series [1], in series [2] and in series [3] were 79 ± 1 µM, 86 ± 2 µM and 66 ± 1 µM, respectively. The “in vitro cytotoxicity compared with cisplatin and carboplatin, A549” value in series [3] is reported as “slightly lower than cisplatin but still higher than carboplatin”.

Regarding `CCN1CCCNC1=S.CCN1CCCNC1=S.N.N.O=[N+]([O-])[O-].O=[N+]([O-])[O-].[Pt+2]` [Complex 8, trans-[Pt(NH3)2(EtDiaz)2]. 2NO3], in series [1], the “activity compared with cisplatin and carboplatin, HCT15” value is “comparable to cisplatin”; the IC50 came to 43 µM. Besides, in series [2], the “cytotoxicity compared with cisplatin and carboplatin, MCF7” value is “between cisplatin and carboplatin”; the IC50 turned out to be 60 ± 2 µM. Further, in series [3], the “in vitro cytotoxicity compared with cisplatin and carboplatin, A549” value was “slightly lower than cisplatin but still higher than carboplatin”; the 50% inhibitory concentration (IC50) came out at 48 ± 1 µM.

As for `N.N.O=[N+]([O-])[O-].O=[N+]([O-])[O-].S=C1NCCCCN1.S=C1NCCCCN1.[Pt+2]` [Complex 9, trans-[Pt(NH3)2(Diap)2]. 2NO3], in series [1], the “activity compared with cisplatin and carboplatin, HCT15” value is on record as “comparable to cisplatin”; the IC50 turned out to be 41 µM. Further, the IC50 in series [2] worked out at 69 ± 1 µM. Further, in series [3], the “in vitro cytotoxicity compared with cisplatin and carboplatin, A549” value is listed as “slightly lower than cisplatin but still higher than carboplatin”; the IC50 came out at 49 ± 1 µM.

On to `N.N.O=[N+]([O-])[O-].O=[N+]([O-])[O-].S=C1NCCN1.S=C1NCCN1.[Pt+2]` [Complex 1, trans-[Pt(NH3)2(Imt)2]. 2NO3], for which, in series [1], the “activity compared with cisplatin and carboplatin, HCT15” value is on record as “almost the same cytotoxicity as carboplatin”; the IC50 was found to be 50 ± 1 µM. The IC50 in series [2] came to 80 ± 1 µM. Moreover, in series [3], the “in vitro cytotoxicity compared with cisplatin and carboplatin, A549” value is listed as “slightly lower than cisplatin but still higher than carboplatin”; the IC50 amounted to 52 ± 2 µM.

In the case of `CN1CCNC1=S.CN1CCNC1=S.N.N.O=[N+]([O-])[O-].O=[N+]([O-])[O-].[Pt+2]` [Complex 2, trans-[Pt(NH3)2(MeImt)2]. 2NO3], in series [1], the “activity compared with cisplatin and carboplatin, HCT15” value is recorded as “comparable to cisplatin”; the IC50 is 40 µM. Moreover, the IC50 in series [2] was found to be 70 ± 2 µM. In series [3], the “in vitro cytotoxicity compared with cisplatin and carboplatin, A549” value is given as “almost two-fold better than that of carboplatin; also recorded: better cytotoxicity against A549 cancer cell line than cisplatin”; the IC50 was determined as 40 µM.

Regarding `CN1CCN(C)C1=S.CN1CCN(C)C1=S.N.N.O=[N+]([O-])[O-].O=[N+]([O-])[O-].[Pt+2]` [Complex 3, trans-[Pt(NH3)2(Me2Imt)2]. 2NO3], in series [1], the “activity compared with cisplatin and carboplatin, HCT15” value was “less potent even than carboplatin”; the IC50 was 69 ± 2 µM. Also, the IC50 in series [2] is 92 ± 2 µM. Also, in series [3], the “in vitro cytotoxicity compared with cisplatin and carboplatin, A549” value is recorded as “the same cytotoxicity as carboplatin”; the IC50 turned out to be 70 ± 1 µM.

Consider `N.N.[Cl][Pt][Cl]` [Cisplatin, cisplatin, reference compound], for which the IC50 in series [1] is 32 ± 2 µM; in series [2], 23 ± 3 µM; in series [3], 42 ± 2 µM.

Consider `CC(C)N1CCN(C(C)C)C1=S.CC(C)N1CCN(C(C)C)C1=S.N.N.O=[N+]([O-])[O-].O=[N+]([O-])[O-].[Pt+2]` [Complex 7, trans-[Pt(NH3)2(Pr2Imt)2].2 NO3], for which, in series [1], the “activity compared with cisplatin and carboplatin, HCT15” value is “almost the same cytotoxicity as carboplatin”; the IC50 was 53 ± 1 µM. Besides, the IC50 in series [2] is 87 ± 2 µM. In addition, in series [3], the “in vitro cytotoxicity compared with cisplatin and carboplatin, A549” value is “the same cytotoxicity as carboplatin”; the IC50 was 69 ± 1 µM.

Regarding `CCCN1CCNC1=S.CCCN1CCNC1=S.N.N.O=[N+]([O-])[O-].O=[N+]([O-])[O-].[Pt+2]` [Complex 5, trans-[Pt(NH3)2(PrImt)2]. 2NO3], in series [1], the “activity compared with cisplatin and carboplatin, HCT15” value is on record as “comparable to cisplatin”; the IC50 was determined as 36 µM. Besides, in series [2], the “cytotoxicity compared with cisplatin and carboplatin, MCF7” value was “between cisplatin and carboplatin”; the IC50 turned out to be 45 ± 1 µM. Moreover, in series [3], the “in vitro cytotoxicity compared with cisplatin and carboplatin, A549” value is “almost two-fold better than that of carboplatin; also recorded: better cytotoxicity against A549 cancer cell line than cisplatin”; the IC50 was found to be 41 µM.

In the case of `CCN1CCN(CC)C1=S.CCN1CCN(CC)C1=S.N.N.O=[N+]([O-])[O-].O=[N+]([O-])[O-].[Pt+2]` [Complex 4, trans-[Pt(NH3)2(Et2Imt)2]. 2NO3], the “activity compared with cisplatin and carboplatin, HCT15” value in series [1] is listed as “less potent even than carboplatin”. Further, the IC50 in series [1] is 63 ± 1 µM; in series [2] it was 89 ± 1 µM; in series [3], 75 ± 1 µM.
